Tested on: NCI-H211 complex spheroid viability
Assay: Anticancer human tumor NCI-H211 cell line growth inhibition [LSD1];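 note: luminescent viability read after seven days of drug exposure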;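 for viability, T/C: 100% = DMSO vehicle control viability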
Details: for IC50: curve of first compound; for viability, T/C: stronger effect = lower value
Method in brief: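 Complex spheroids of tumor cells with HUVEC and human MSCs, exposed to iadademstat combined with other agents. Each agent tested in half-log steps from near clinical Cmax (else 10 microM top), DMSO ≤0.25%.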

[1] = second compound 0.1 µM, first compound 0.0316 µM
[2] = second compound 0.1 µM, first compound 0.1 µM
[3] = second compound 0.1 µM, first compound 0.316 µM
[4] = second compound 0.1 µM, first compound 1 µM
[5] = second compound 0.1 µM, first compound 3.16 µM
[6] = second compound 0.1 µM, first compound 10 µM
[7] = second compound 0.316 µM, first compound 0.0316 µM
[8] = second compound 0.316 µM, first compound 0.1 µM
[9] = second compound 0.316 µM, first compound 0.316 µM
[10] = second compound 0.316 µM, first compound 1 µM
[11] = second compound 0.316 µM, first compound 3.16 µM
[12] = second compound 0.316 µM, first compound 10 µM
[13] = second compound 1 µM, first compound 0.0316 µM
[14] = second compound 1 µM, first compound 0.1 µM
[15] = second compound 1 µM, first compound 0.316 µM
[16] = second compound 1 µM, first compound 1 µM
[17] = second compound 1 µM, first compound 3.16 µM
[18] = second compound 1 µM, first compound 10 µM
[19] = second compound 3.16 µM, first compound 0.0316 µM
[20] = second compound 3.16 µM, first compound 0.1 µM
[21] = second compound 3.16 µM, first compound 0.316 µM
[22] = second compound 3.16 µM, first compound 1 µM
[23] = second compound 3.16 µM, first compound 3.16 µM
[24] = second compound 3.16 µM, first compound 10 µM
[25] = second compound 10 µM, first compound 0.0316 µM
[26] = second compound 10 µM, first compound 0.1 µM
[27] = second compound 10 µM, first compound 0.316 µM
[28] = second compound 10 µM, first compound 1 µM
[29] = second compound 10 µM, first compound 3.16 µM
[30] = second compound 10 µM, first compound 10 µM
[31] = second compound 0.1 µM, first compound 0.00949 µM
[32] = second compound 0.1 µM, first compound 0.03 µM
[33] = second compound 0.1 µM, first compound 0.0949 µM
[34] = second compound 0.1 µM, first compound 0.3 µM
[35] = second compound 0.316 µM, first compound 0.00949 µM
[36] = second compound 0.316 µM, first compound 0.03 µM
[37] = second compound 0.316 µM, first compound 0.0949 µM
[38] = second compound 0.316 µM, first compound 0.3 µM
[39] = second compound 1 µM, first compound 0.00949 µM
[40] = second compound 1 µM, first compound 0.03 µM
[41] = second compound 1 µM, first compound 0.0949 µM
[42] = second compound 1 µM, first compound 0.3 µM
[43] = second compound 3.16 µM, first compound 0.00949 µM
[44] = second compound 3.16 µM, first compound 0.03 µM
[45] = second compound 3.16 µM, first compound 0.0949 µM
[46] = second compound 3.16 µM, first compound 0.3 µM
[47] = second compound 10 µM, first compound 0.00949 µM
[48] = second compound 10 µM, first compound 0.03 µM
[49] = second compound 10 µM, first compound 0.0949 µM
[50] = second compound 10 µM, first compound 0.3 µM

CC1(C)CCC(CN2CCN(c3ccc(C(=O)NS(=O)(=O)c4ccc(NCC5CCOCC5)c([N+](=O)[O-])c4)c(Oc4cnc5[nH]ccc5c4)c3)CC2)=C(c2ccc(Cl)cc2)C1 + NC1CC1c1ccc(-c2cccc(O)c2)cc1
IC50 (second compound 0.1 µM): < 0.0316 µM | IC50 (second compound 0.316 µM): < 0.0316 µM | IC50 (second compound 1 µM): < 0.0316 µM | IC50 (second compound 3.16 µM): < 0.0316 µM | IC50 (second compound 10 µM): < 0.0316 µM | viability, T/C [1]: 43.8% | viability, T/C [2]: 38.7% | viability, T/C [3]: 35% | viability, T/C [4]: 53.4% | viability, T/C [5]: 100% | viability, T/C [6]: 52.7% | viability, T/C [7]: 36.8% | viability, T/C [8]: 37.9% | viability, T/C [9]: 37.2% | viability, T/C [10]: 53.2% | viability, T/C [11]: 100% | viability, T/C [12]: 65.1% | viability, T/C [13]: 27.5% | viability, T/C [14]: 47.8% | viability, T/C [15]: 26.1% | viability, T/C [16]: 44.5% | viability, T/C [17]: 90.8% | viability, T/C [18]: 55% | viability, T/C [19]: 32.1% | viability, T/C [20]: 28.1% | viability, T/C [21]: 29.8% | viability, T/C [22]: 30.8% | viability, T/C [23]: 58.9% | viability, T/C [24]: 46.2% | viability, T/C [25]: 32.7% | viability, T/C [26]: 26.2% | viability, T/C [27]: 21.2% | viability, T/C [28]: 28.2% | viability, T/C [29]: 30.5% | viability, T/C [30]: 21%

CC1COCCN1c1cc(C2(S(C)(=N)=O)CC2)nc(-c2ccnc3[nH]ccc23)n1 (stereo not given) + NC1CC1c1ccc(-c2cccc(O)c2)cc1
IC50 (second compound 0.1 µM): 0.258 µM | IC50 (second compound 0.316 µM): 0.264 µM | IC50 (second compound 1 µM): 0.381 µM | IC50 (second compound 3.16 µM): 0.317 µM | IC50 (second compound 10 µM): 0.115 µM | viability, T/C [1]: 89.3% | viability, T/C [2]: 68.7% | viability, T/C [3]: 48.5% | viability, T/C [4]: 19.1% | viability, T/C [5]: 4.67% | viability, T/C [6]: 2.73% | viability, T/C [7]: 85.4% | viability, T/C [8]: 72.9% | viability, T/C [9]: 46.9% | viability, T/C [10]: 13.5% | viability, T/C [11]: 5.02% | viability, T/C [12]: 2.53% | viability, T/C [13]: 74.2% | viability, T/C [14]: 64.3% | viability, T/C [15]: 57.5% | viability, T/C [16]: 15% | viability, T/C [17]: 5.48% | viability, T/C [18]: 3.11% | viability, T/C [19]: 69.6% | viability, T/C [20]: 73.2% | viability, T/C [21]: 48.8% | viability, T/C [22]: 16.3% | viability, T/C [23]: 5.24% | viability, T/C [24]: 3% | viability, T/C [25]: 65.7% | viability, T/C [26]: 51.6% | viability, T/C [27]: 33.1% | viability, T/C [28]: 14.5% | viability, T/C [29]: 5.1% | viability, T/C [30]: 3.28%

CCN(c1cc(-c2ccc(CN3CCOCC3)cc2)cc(C(=O)NCc2c(C)cc(C)[nH]c2=O)c1C)C1CCOCC1 + NC1CC1c1ccc(-c2cccc(O)c2)cc1
IC50 (second compound 0.1 µM): 0.205 µM | IC50 (second compound 0.316 µM): 0.0694 µM | IC50 (second compound 1 µM): 0.114 µM | IC50 (second compound 3.16 µM): 0.127 µM | IC50 (second compound 10 µM): 0.139 µM | viability, T/C [31]: 74.4% | viability, T/C [32]: 62.2% | viability, T/C [33]: 61.3% | viability, T/C [34]: 43.7% | viability, T/C (second compound 0.1 µM, first compound 0.949 µM): 41% | viability, T/C (second compound 0.1 µM, first compound 3 µM): 40.9% | viability, T/C [35]: 84% | viability, T/C [36]: 67.3% | viability, T/C [37]: 42.7% | viability, T/C [38]: 48.8% | viability, T/C (second compound 0.316 µM, first compound 0.949 µM): 46.5% | viability, T/C (second compound 0.316 µM, first compound 3 µM): 36.3% | viability, T/C [39]: 83.4% | viability, T/C [40]: 48.5% | viability, T/C [41]: 65.8% | viability, T/C [42]: 38.1% | viability, T/C (second compound 1 µM, first compound 0.949 µM): 38.4% | viability, T/C (second compound 1 µM, first compound 3 µM): 30.3% | viability, T/C [43]: 79.3% | viability, T/C [44]: 58.7% | viability, T/C [45]: 50.5% | viability, T/C [46]: 46.3% | viability, T/C (second compound 3.16 µM, first compound 0.949 µM): 38.8% | viability, T/C (second compound 3.16 µM, first compound 3 µM): 27.4% | viability, T/C [47]: 70.3% | viability, T/C [48]: 58.6% | viability, T/C [49]: 46.6% | viability, T/C [50]: 51.7% | viability, T/C (second compound 10 µM, first compound 0.949 µM): 40.8% | viability, T/C (second compound 10 µM, first compound 3 µM): 32.1%

Cn1ncnc1C1c2n[nH]c(=O)c3cc(F)cc(c23)NC1c1ccc(F)cc1 (stereo not given) + NC1CC1c1ccc(-c2cccc(O)c2)cc1
IC50 (second compound 0.1 µM): 0.00185 µM | IC50 (second compound 0.316 µM): 0.00166 µM | IC50 (second compound 1 µM): 0.00105 µM | IC50 (second compound 3.16 µM): 0.00108 µM | IC50 (second compound 10 µM): 0.00102 µM | viability, T/C (second compound 0.1 µM, first compound 0.000316 µM): 64.8% | viability, T/C (second compound 0.1 µM, first compound 0.001 µM): 65.8% | viability, T/C (second compound 0.1 µM, first compound 0.00316 µM): 36.7% | viability, T/C (second compound 0.1 µM, first compound 0.01 µM): 6.78% | viability, T/C [1]: 5.16% | viability, T/C [2]: 5.28% | viability, T/C (second compound 0.316 µM, first compound 0.000316 µM): 79.3% | viability, T/C (second compound 0.316 µM, first compound 0.001 µM): 66.8% | viability, T/C (second compound 0.316 µM, first compound 0.00316 µM): 28.5% | viability, T/C (second compound 0.316 µM, first compound 0.01 µM): 6.02% | viability, T/C [7]: 5.46% | viability, T/C [8]: 4.84% | viability, T/C (second compound 1 µM, first compound 0.000316 µM): 51.5% | viability, T/C (second compound 1 µM, first compound 0.001 µM): 51.6% | viability, T/C (second compound 1 µM, first compound 0.00316 µM): 23.6% | viability, T/C (second compound 1 µM, first compound 0.01 µM): 6.16% | viability, T/C [13]: 4.68% | viability, T/C [14]: 4.9% | viability, T/C (second compound 3.16 µM, first compound 0.000316 µM): 71.6% | viability, T/C (second compound 3.16 µM, first compound 0.001 µM): 50.8% | viability, T/C (second compound 3.16 µM, first compound 0.00316 µM): 26% | viability, T/C (second compound 3.16 µM, first compound 0.01 µM): 6.88% | viability, T/C [19]: 5.03% | viability, T/C [20]: 5.16% | viability, T/C (second compound 10 µM, first compound 0.000316 µM): 48.5% | viability, T/C (second compound 10 µM, first compound 0.001 µM): 52.2% | viability, T/C (second compound 10 µM, first compound 0.00316 µM): 19.9% | viability, T/C (second compound 10 µM, first compound 0.01 µM): 6.25% | viability, T/C [25]: 5.22% | viability, T/C [26]: 4.95%

Nc1ncn(C2CC(O)C(CO)S2)c(=O)n1 (stereo not given) + NC1CC1c1ccc(-c2cccc(O)c2)cc1
IC50 (second compound 0.1 µM): < 0.000949 µM | IC50 (second compound 0.316 µM): < 0.000949 µM | IC50 (second compound 1 µM): < 0.000949 µM | IC50 (second compound 3.16 µM): < 0.000949 µM | IC50 (second compound 10 µM): < 0.000949 µM | viability, T/C (second compound 0.1 µM, first compound 0.000949 µM): 35.2% | viability, T/C (second compound 0.1 µM, first compound 0.003 µM): 20.8% | viability, T/C [31]: 9.36% | viability, T/C [32]: 4.53% | viability, T/C [33]: 4.25% | viability, T/C [34]: 5.78% | viability, T/C (second compound 0.316 µM, first compound 0.000949 µM): 35.8% | viability, T/C (second compound 0.316 µM, first compound 0.003 µM): 16.6% | viability, T/C [35]: 8.03% | viability, T/C [36]: 5.12% | viability, T/C [37]: 5.19% | viability, T/C [38]: 5.71% | viability, T/C (second compound 1 µM, first compound 0.000949 µM): 40.5% | viability, T/C (second compound 1 µM, first compound 0.003 µM): 17.2% | viability, T/C [39]: 8.75% | viability, T/C [40]: 4.16% | viability, T/C [41]: 4.46% | viability, T/C [42]: 6.59% | viability, T/C (second compound 3.16 µM, first compound 0.000949 µM): 31.3% | viability, T/C (second compound 3.16 µM, first compound 0.003 µM): 15.9% | viability, T/C [43]: 8.59% | viability, T/C [44]: 5.64% | viability, T/C [45]: 5.95% | viability, T/C [46]: 4.49% | viability, T/C (second compound 10 µM, first compound 0.000949 µM): 32.3% | viability, T/C (second compound 10 µM, first compound 0.003 µM): 16.6% | viability, T/C [47]: 8.49% | viability, T/C [48]: 6.66% | viability, T/C [49]: 5.5% | viability, T/C [50]: 6.65%
